The values that follow come from US7902361B2, “Pyrimidin-4-yl-3, 4-thione compounds and their use in therapy” (Cyclacel Limited, priority 2003, dated 2011).

Molecules are shown by their SMILES. pIC50, pKi: −log10 of the molar value.

Holding throughout (format): biochemical
One assay addresses CDK7/cyclin H (Homo sapiens, UniProt P50613). Put plainly: Kinase assay CDK7/cyclin H. As to conditions: Ki calculated (Cheng-Prusoff) from experimentally determined IC50 and Km,ATP; read-out: Kinase Inhibition Ki CDK7 - cyclin H. On the procedure: (§1) The compounds from the examples above were investigated for their ability to inhibit the enzymatic activity of various protein kinases. This was achieved by measurement of incorporation of radioactive phosphate from ATP into appropriate polypeptide substrates. Recombinant protein kinases and kinase complexes were produced or obtained commercially. Assays were performed using 96-well plates and appropriate assay buffers (typically 25 mM β-glycerophosphate, 20 mM MOPS, 5 mM EGTA, 1 mM DTT, 1 mM […], pH 7.4), into which were added 2-4 μg of active enzyme with appropriate substrates. The reactions were initiated by addition of Mg/ATP mix (15 mM MgCl2+100 μM ATP with 30-50 kBq per well of [γ-^32P]-ATP) and mixtures incubated as required at 30° C. Reactions were stopped on ice, followed by filtration through p81 filterplates or GF/C filterplates (Whatman Polyfiltronics, Kent, UK). After washing 3 times with 75 mM aq orthophosphoric acid, plates were dried, scintillant added and incorporated radioactivity measured in a scintillation counter (TopCount, Packard Instruments, Pangbourne, Berks, UK). Compounds for kinase assay were made up as 10 mM stocks in DMSO and diluted into 10% DMSO in assay buffer.

In the next assay the target is T1, aurora A (Homo sapiens, UniProt O14965).
T1 sequence (O14965 1-403): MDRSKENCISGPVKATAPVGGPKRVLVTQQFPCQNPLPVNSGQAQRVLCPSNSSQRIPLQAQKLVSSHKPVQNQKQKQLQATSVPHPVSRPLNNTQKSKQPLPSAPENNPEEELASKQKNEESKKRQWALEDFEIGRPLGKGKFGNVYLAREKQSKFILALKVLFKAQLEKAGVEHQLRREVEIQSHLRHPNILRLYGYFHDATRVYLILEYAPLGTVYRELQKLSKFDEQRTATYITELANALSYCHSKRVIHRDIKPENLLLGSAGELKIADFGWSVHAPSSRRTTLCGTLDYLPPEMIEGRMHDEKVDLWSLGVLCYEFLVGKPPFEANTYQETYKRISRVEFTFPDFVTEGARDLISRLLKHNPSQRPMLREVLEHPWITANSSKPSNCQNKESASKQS
Briefly: Kinase assay aurora A. As to conditions: Ki calculated (Cheng-Prusoff) from experimentally determined IC50 and Km,ATP; read-out: Kinase Inhibition Ki Aurora A. On the procedure: as §1, with “The reactions were initiated by addition of Mg/ATP mix (15 mM MgCl2+100 μM ATP with 30-50 kBq per well of [γ-^32P]-ATP) and mixtures incubated as required at 30° C.” left out

In a further assay the target is CDK2/cyclin E (Homo sapiens, UniProt P24941). Put plainly: Kinase assay CDK2/cyclin E. As to conditions: Ki calculated (Cheng-Prusoff) from experimentally determined IC50 and Km,ATP; read-out: Kinase Inhibition Ki CDK2 - cyclin E. On the procedure: as §1, with “The reactions were initiated by addition of Mg/ATP mix (15 mM MgCl2+100 μM ATP with 30-50 kBq per well of [γ-^32P]-ATP) and mixtures incubated as required at 30° C.” left out

The next assay has as its target T2, GSK3β (Homo sapiens, UniProt P49841).
T2 construct: purchased New England Biolabs
Briefly: GSK3β in vitro kinase assay. As to conditions: recombinant human GSK3β, 100 μM ATP. On the procedure:
Both isoforms of GSK3 (α and β) are involved in the regulation of glycogen synthase activity—key enzyme in the glycogen metabolism.
A 10-point titration was set up to determine the IC50 values of selected example compounds against GSK3β. Assays were performed using 96-well microtiter plates with a final volume of 25 μL per well. Each assay contained 1.5 units of GSK3β(New England Biolabs), 200 μM CREB phosphopeptide ([…]pSYR, Alta Biosciences), 20 mM Tris HCl pH7.5, 5 mM DTT, 15 mM MgCl2 supplemented with 100 μM ATP and 0.5 μCi of [γ-^32P] ATP plus or minus inhibitor in 2% DMSO. Assays were carried out for 30 minutes at 30° C. before stopping the reaction by the addition of an equal volume of 75 mM aqueous phosphoric acid. Samples were then spotted onto a p81 filterplate (Whatman) and a vacuum was applied. Wells were washed 3 times with 200 μL of dilute aqueous phosphoric acid before the addition of 50 μL Microscint 40 per well. Incorporation of radioactivity was determined on a Topcount microplate scintillation counter (Packard).

The next assay concerns the target CDK2/cyclin A (Homo sapiens, UniProt P24941). Put plainly: Kinase assay CDK2/cyclin A. As to conditions: Ki calculated (Cheng-Prusoff) from experimentally determined IC50 and Km,ATP; read-out: Kinase Inhibition Ki CDK2 - cyclin A. As for the experimental part:
as §1, with “The reactions were initiated by addition of Mg/ATP mix (15 mM MgCl2+100 μM ATP with 30-50 kBq per well of [γ-^32P]-ATP) and mixtures incubated as required at 30° C.” left out

Another assay has as its target CDK4/cyclin D1 (Homo sapiens, UniProt P11802). Briefly: Kinase assay CDK4/cyclin D1. As to conditions: Ki calculated (Cheng-Prusoff) from experimentally determined IC50 and Km,ATP; read-out: Kinase Inhibition Ki CDK4 - cyclin D1. As for the experimental part:
as §1

The next assay has as its target CDK9/cyclin T1 (Homo sapiens, UniProt P50750). Put plainly: Kinase assay CDK9/cyclin T1. As to conditions: Ki calculated (Cheng-Prusoff) from experimentally determined IC50 and Km,ATP; read-out: Kinase Inhibition Ki CDK9 - cyclin T1. On the procedure:
as §1

Another assay deals with CDK1/cyclin B (Homo sapiens, UniProt P06493). Put plainly: Kinase assay CDK1/cyclin B (radioactive phosphate incorporation). As to conditions: Ki calculated (Cheng-Prusoff) from experimentally determined IC50 and Km,ATP; read-out: Kinase Inhibition Ki CDK1 - cyclin B. As for the experimental part:
as §1, with “The reactions were initiated by addition of Mg/ATP mix (15 mM MgCl2+100 μM ATP with 30-50 kBq per well of [γ-^32P]-ATP) and mixtures incubated as required at 30° C.” left out

CDK7/cyclin H, sequence (P50613 whole entry, species assumed): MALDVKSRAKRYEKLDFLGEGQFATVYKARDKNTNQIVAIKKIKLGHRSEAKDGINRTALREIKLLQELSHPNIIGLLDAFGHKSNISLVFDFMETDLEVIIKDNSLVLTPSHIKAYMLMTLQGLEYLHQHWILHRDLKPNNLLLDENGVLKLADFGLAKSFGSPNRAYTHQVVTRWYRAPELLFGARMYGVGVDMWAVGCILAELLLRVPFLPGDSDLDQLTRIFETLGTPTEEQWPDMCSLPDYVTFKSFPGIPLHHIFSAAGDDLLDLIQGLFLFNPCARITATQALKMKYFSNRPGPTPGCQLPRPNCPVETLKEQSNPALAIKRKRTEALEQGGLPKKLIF
CDK7/cyclin H, sequence (P51946 whole entry partner, species assumed): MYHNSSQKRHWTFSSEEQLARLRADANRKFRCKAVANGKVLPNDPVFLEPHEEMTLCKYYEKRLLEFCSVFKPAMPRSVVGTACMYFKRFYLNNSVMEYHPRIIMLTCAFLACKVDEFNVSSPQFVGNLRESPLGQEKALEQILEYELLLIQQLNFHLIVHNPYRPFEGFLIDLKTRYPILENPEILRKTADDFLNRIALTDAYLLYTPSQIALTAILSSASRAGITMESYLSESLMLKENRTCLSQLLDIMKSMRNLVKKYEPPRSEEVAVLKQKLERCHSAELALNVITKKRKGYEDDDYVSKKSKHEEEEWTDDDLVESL
CDK4/cyclin D1, sequence (P11802 whole entry, species assumed): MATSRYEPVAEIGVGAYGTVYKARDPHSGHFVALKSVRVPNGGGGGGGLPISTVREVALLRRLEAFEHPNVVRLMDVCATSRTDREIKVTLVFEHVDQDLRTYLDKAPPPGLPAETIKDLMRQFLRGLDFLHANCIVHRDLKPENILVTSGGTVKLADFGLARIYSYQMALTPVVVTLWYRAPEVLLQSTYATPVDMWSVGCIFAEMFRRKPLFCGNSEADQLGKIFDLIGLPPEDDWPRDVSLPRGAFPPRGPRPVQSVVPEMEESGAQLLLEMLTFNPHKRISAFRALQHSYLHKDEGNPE
CDK4/cyclin D1, sequence (P24385 whole entry partner, species assumed): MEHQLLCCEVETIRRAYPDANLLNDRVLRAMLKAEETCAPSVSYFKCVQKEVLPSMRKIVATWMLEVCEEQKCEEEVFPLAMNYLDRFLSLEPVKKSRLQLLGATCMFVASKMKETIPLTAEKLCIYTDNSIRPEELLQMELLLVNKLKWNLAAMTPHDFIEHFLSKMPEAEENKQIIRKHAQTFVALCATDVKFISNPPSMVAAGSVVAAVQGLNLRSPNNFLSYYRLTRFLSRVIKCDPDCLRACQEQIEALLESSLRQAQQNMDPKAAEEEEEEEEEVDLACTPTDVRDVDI
CDK9/cyclin T1, sequence (P50750 whole entry, species assumed): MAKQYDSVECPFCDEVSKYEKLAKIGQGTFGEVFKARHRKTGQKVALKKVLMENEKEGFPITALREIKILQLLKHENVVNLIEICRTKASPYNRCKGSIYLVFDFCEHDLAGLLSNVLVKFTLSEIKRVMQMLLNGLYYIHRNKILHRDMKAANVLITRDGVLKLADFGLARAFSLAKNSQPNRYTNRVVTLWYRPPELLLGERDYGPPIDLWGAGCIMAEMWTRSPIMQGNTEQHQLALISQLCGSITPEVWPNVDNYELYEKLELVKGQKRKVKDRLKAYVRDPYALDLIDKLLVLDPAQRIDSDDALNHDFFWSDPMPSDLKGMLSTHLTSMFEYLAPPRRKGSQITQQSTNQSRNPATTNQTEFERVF
CDK9/cyclin T1, sequence (O60563 whole entry partner, species assumed): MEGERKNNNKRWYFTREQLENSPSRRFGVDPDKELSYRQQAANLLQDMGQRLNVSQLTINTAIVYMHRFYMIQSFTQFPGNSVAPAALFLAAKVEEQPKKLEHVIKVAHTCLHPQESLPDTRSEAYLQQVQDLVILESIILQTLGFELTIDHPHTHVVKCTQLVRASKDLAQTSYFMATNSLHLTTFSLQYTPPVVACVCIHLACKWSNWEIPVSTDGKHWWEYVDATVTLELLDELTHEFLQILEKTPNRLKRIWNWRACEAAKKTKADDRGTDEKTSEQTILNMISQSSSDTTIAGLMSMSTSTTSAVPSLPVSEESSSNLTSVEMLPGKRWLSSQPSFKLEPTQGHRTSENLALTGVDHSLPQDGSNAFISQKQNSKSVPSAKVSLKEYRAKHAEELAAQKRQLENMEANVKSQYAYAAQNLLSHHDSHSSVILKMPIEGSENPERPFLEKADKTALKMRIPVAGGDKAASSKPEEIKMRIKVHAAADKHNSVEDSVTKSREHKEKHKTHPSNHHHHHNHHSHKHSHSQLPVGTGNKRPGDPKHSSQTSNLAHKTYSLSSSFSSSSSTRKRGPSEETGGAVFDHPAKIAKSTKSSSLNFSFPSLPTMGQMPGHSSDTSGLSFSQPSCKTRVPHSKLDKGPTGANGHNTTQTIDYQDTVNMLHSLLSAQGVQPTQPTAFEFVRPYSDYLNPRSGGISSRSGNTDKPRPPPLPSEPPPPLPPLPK
T2 sequence (P49841 whole entry): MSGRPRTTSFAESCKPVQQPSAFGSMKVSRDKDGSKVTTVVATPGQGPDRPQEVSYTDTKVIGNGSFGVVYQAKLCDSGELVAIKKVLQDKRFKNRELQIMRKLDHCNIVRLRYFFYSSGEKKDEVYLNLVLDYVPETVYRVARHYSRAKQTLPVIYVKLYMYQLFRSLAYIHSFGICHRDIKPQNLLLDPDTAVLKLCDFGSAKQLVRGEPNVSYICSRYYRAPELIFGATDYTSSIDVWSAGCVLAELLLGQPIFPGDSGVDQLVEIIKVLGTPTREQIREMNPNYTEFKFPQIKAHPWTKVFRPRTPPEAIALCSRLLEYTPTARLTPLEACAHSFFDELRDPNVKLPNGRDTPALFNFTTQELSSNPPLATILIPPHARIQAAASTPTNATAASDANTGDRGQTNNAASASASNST
CDK1/cyclin B, sequence (P06493 whole entry, species assumed): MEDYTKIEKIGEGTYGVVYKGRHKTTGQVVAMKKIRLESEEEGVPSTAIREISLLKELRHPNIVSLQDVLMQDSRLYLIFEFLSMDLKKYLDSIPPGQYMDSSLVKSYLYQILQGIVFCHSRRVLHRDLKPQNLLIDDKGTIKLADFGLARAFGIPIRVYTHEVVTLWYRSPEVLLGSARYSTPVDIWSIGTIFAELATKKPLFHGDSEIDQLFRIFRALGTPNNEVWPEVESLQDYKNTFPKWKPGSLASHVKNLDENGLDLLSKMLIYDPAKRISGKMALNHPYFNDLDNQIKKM
CDK1/cyclin B, sequence (P14635 whole entry partner, species assumed): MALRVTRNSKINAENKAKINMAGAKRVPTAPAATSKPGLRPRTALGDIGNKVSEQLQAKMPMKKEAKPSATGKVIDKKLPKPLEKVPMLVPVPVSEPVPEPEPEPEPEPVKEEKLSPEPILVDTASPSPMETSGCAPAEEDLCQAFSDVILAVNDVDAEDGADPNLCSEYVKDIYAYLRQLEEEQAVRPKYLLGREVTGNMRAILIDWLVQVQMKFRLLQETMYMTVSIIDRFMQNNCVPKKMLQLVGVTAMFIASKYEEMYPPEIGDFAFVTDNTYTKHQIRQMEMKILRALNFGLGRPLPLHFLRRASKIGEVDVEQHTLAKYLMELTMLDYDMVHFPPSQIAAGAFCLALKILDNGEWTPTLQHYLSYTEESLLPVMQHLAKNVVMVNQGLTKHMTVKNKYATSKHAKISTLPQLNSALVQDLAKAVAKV

Broadly, the pKi is the Ki on a negative log10 scale, so that one unit is a factor of ten. Usually pIC50 stands for the IC50 on a negative log10 scale, so that one unit is a factor of ten. For `Cc1c(-c2ccnc(Nc3cccc(S(=O)(=O)N4CCOCC4)c3)n2)sc(=O)n1C` [Compound 79, 3,4-Dimethyl-5-{2-[3-(morpholine-4-sulfonyl)-phenylamino]-pyrimidin-4-yl}-3H-thiazol-2-one], the values for the pKi at CDK7/cyclin H, at aurora A and on CDK2/cyclin E were 5.59, 5.85 and 5.82, respectively. On GSK3β, the pIC50 is 7.45.

`Cc1c(-c2ccnc(Nc3ccc(CN)cc3)n2)sc(=O)n1C` [Compound 80, 5-[2-(4-Aminomethyl-phenylamino)-pyrimidin-4-yl]-3,4-dimethyl-3H-thiazol-2-one]: at aurora A, the pKi is 6.42. Besides, the pIC50 on GSK3β was 7.16.

Take `Cc1c(-c2ccnc(Nc3ccc(CNC(=O)c4ccccn4)cc3)n2)sc(=O)n1C` [Compound 82, Pyridine-2-carboxylic acid 4-[4-(3,4-dimethyl-2-oxo-2,3-dihydro-thiazol-5-yl)-pyrimidin-2-ylamino]-benzylamide]: the pKi on aurora A is 7.20. Moreover, on GSK3β, the pIC50 is 7.55.

On to `Cc1c(-c2ccnc(Nc3ccc(N(C)C)c([N+](=O)[O-])c3)n2)sc(=O)n1C` [Compound 22, 5-[2-(4-Dimethylamino-3-nitro-phenylamino)-pyrimidin-4-yl]-3,4-dimethyl-3H-thiazol-2-one], for which the pKi at CDK7/cyclin H was 8.72; at CDK2/cyclin A it was 9.30; on aurora A, 6.96; at CDK2/cyclin E it was 7.28; on CDK4/cyclin D1, 5.89; on CDK9/cyclin T1, 8.14. In addition, at CDK1/cyclin B, the pKi is 7.09.

For `Cc1c(-c2ccnc(Nc3cccc(S(=O)(=O)NC(C)C)c3)n2)sc(=O)n1C` [Compound 74, 3-[4-(3,4-Dimethyl-2-oxo-2,3-dihydro-thiazol-5-yl)-pyrimidin-2-ylamino]-N-isopropyl-benzenesulfonamide], the pKi at CDK7/cyclin H was 5.57; at aurora A it was 6.06; on CDK2/cyclin E, 5.85; on CDK4/cyclin D1, 6.01; on CDK9/cyclin T1, 7.30. Further, the pIC50 on GSK3β is 7.12.

As for `COCCNS(=O)(=O)c1ccc(Nc2nccc(-c3sc(=O)n(C)c3C)n2)cc1` [Compound 65, 4-[4-(3,4-Dimethyl-2-oxo-2,3-dihydro-thiazol-5-yl)-pyrimidin-2-ylamino]-N-(2-methoxy-ethyl)-benzenesulfonamide], the pKi at CDK7/cyclin H was 6.03; at aurora A, 6.28; at CDK9/cyclin T1, 7.85; at CDK1/cyclin B it was 8.39. Further, the pIC50 on GSK3β is 8.05.

Consider `CCn1c(C)c(-c2ccnc(Nc3ccc([N+](=O)[O-])cc3)n2)sc1=O` [Compound 52, 3-Ethyl-4-methyl-5-[2-(4-nitro-phenylamino)-pyrimidin-4-yl]-3H-thiazol-2-one], for which the pKi on CDK7/cyclin H is 7.15; on CDK2/cyclin A it was 6.80; on aurora A, 7.60; at CDK2/cyclin E, 7.11; at CDK4/cyclin D1, 5.92; on CDK9/cyclin T1, 7.80. Further, the pKi at CDK1/cyclin B is 6.14.

For the molecule `COc1ccc(C)c(Nc2nccc(-c3sc(=O)n(C)c3C)n2)c1` [Compound 56, 5-[2-(5-Methoxy-2-methyl-phenylamino)-pyrimidin-4-yl]-3,4-dimethyl-3H-thiazol-2-one], the pKi at CDK7/cyclin H is 5.54; on aurora A, 5.59; on CDK9/cyclin T1, 6.34. Further, the pIC50 on GSK3β is 5.46.

Take `Cc1c(-c2ccnc(Nc3cccc([N+](=O)[O-])c3)n2)sc(=O)n1C` [Compound 1, 3,4-Dimethyl-5-[2-(3-nitro-phenylamino)-pyrimidin-4-yl]-3H-thiazol-2-one]: the pKi is 8.55 at CDK7/cyclin H; 6.77 on CDK2/cyclin A; 6.15 at aurora A; 8.00 on CDK2/cyclin E; 6.52 at CDK4/cyclin D1; 9.52 on CDK9/cyclin T1. The pKi on CDK1/cyclin B was 6.00.

As for `CCn1c(C)c(-c2ccnc(Nc3ccc(Cl)cc3)n2)sc1=O` [Compound 46, 5-[2-(4-Chloro-phenylamino)-pyrimidin-4-yl]-3-ethyl-4-methyl-3H-thiazol-2-one], the pKi is 6.10 on CDK7/cyclin H; 6.40 at CDK2/cyclin A; 5.96 on aurora A; 6.24 at CDK2/cyclin E; 7.24 at CDK9/cyclin T1. Also, the pIC50 at GSK3β is 7.00.

On to `Cc1ccc(Nc2nccc(-c3sc(=O)n(C)c3C)n2)cc1S(=O)(=O)N1CCOCC1` [Compound 78, 3,4-Dimethyl-5-{2-[4-methyl-3-(morpholine-4-sulfonyl)-phenylamino]-pyrimidin-4-yl}-3H-thiazol-2-one], for which the negative logarithm of the Ki (pKi) is 5.92 on CDK7/cyclin H, 5.96 at aurora A, 5.68 at CDK2/cyclin E and 7.57 at CDK9/cyclin T1. In addition, on GSK3β, the pIC50 was 6.88.

With `CCn1c(C)c(-c2ccnc(Nc3ccc(N4CCOCC4)cc3)n2)sc1=O` [Compound 27, 3-Ethyl-4-methyl-5-[2-(4-morpholin-4-yl-phenylamino)-pyrimidin-4-yl]-3H-thiazol-2-one], the pKi is 5.80 at CDK7/cyclin H; 5.70 on CDK2/cyclin A; 7.48 at aurora A; 6.30 at CDK2/cyclin E; 5.48 on CDK4/cyclin D1; 6.16 at CDK9/cyclin T1.

Take `Cc1cc(Nc2nccc(-c3sc(=O)n(C)c3C)n2)cnc1Cl` [Compound 81, 5-[2-(6-Chloro-5-methyl-pyridin-3-ylamino)-pyrimidin-4-yl]-3,4-dimethyl-3H-thiazol-2-one]: the pKi on aurora A was 6.30. For the same molecule, the pIC50 at GSK3β is 8.49.

On to `Cc1c(-c2ccnc(Nc3cc(N)cc(C(F)(F)F)c3)n2)sc(=O)n1C` [Compound 71, 5-[2-(3-Amino-5-trifluoromethyl-phenylamino)-pyrimidin-4-yl]-3,4-dimethyl-3H-thiazol-2-one], for which the pKi on CDK7/cyclin H was 7.14; at CDK2/cyclin A it was 6.55; on aurora A it was 6.96; at CDK4/cyclin D1, 6.77; at CDK1/cyclin B, 6.85. The negative logarithm of the IC50 (pIC50) on GSK3β was 8.28.
